Assay results published in US20250326771A1, “PIPERAZINE DERIVATIVES USEFUL IN HIV THERAPY” (VIIV HEALTHCARE COMPANY, priority 2022, published 2025).
Like-named read-outs stand apart in the source and are kept apart here.

Legend:
cIAP2-BIR2 = cIAP2-BIR2 (Homo sapiens (Human), UniProt Q13489); assay: BIR binding assay (FRET competition), cIAP2 BIR2
Outline: (§1)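 Compounds tested as 15-point, 3-fold series displacing 200 nM AlexaFluor647-labelled SMAC peptide from His-tagged BIR domain (cIAP1-BIR3 50 nM; cIAP1-BIR2 and cIAP2-BIR2 325 nM; XIAP-BIR3 100 nM), pH 7.4, 60 min. Eu-W1024 (2 nM) added 30 min; emission ratio fitted for IC50.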

cIAP1-BIR3 = cIAP1-BIR3 (Homo sapiens (Human), UniProt Q13490); assay: BIR binding assay (FRET competition), cIAP1 BIR3; settings: for cIAP1 BIR3 vs BIR2 separation window: fold separation (FS) for cIAP1
cIAP1-BIR3, sequence (Q13490 253-363): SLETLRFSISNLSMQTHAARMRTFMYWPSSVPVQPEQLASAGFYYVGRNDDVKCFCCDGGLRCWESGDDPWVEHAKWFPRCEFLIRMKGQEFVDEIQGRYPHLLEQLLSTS
Outline: as §1

XIAP-BIR3 = XIAP-BIR3 (Homo sapiens (Human), UniProt P98170); assay: BIR binding assay (FRET competition), XIAP BIR3; settings: for XIAP BIR3 vs BIR2 separation window: fold separation (FS) for XIAP
XIAP-BIR3, sequence (P98170 241-356): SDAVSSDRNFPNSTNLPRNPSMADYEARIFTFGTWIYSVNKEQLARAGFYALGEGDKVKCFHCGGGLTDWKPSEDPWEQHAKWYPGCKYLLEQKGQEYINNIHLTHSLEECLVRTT
Outline: as §1

[1] = tested on: Jurkat HIV-luciferase clones; assay: Jurkat latency reversal assay; type: cell-based; settings: Homo sapiens, 48 h; Jurkat latency reversal assay potency; read-out: Jurkat pEC50 (converted)
Outline: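 Latency reversal was scored as provirus-driven luciferase luminescence in pooled Jurkat HIV-luc clones after 48 h compound exposure at 37° C. EC50 and maximal activation over vehicle were fitted with a four-parameter logistic model.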

cIAP1-BIR2 = cIAP1-BIR2 (Homo sapiens (Human), UniProt Q13490); assay: BIR binding assay (FRET competition), cIAP1 BIR2
cIAP1-BIR2, sequence (Q13490 173-257): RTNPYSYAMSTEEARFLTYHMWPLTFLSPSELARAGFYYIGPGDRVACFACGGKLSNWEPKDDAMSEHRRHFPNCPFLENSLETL
Outline: as §1

cIAP2-BIR3 = cIAP2-BIR3 (Homo sapiens (Human), UniProt Q13489); assay: BIR binding assay (FRET competition), cIAP2 BIR3; settings: for cIAP2 BIR3 vs BIR2 separation window: fold separation (FS) for cIAP2
cIAP2-BIR3, sequence (Q13489 238-349): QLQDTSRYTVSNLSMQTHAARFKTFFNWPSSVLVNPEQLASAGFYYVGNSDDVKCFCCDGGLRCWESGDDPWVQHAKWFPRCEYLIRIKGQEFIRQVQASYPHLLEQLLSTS

XIAP-BIR2 = XIAP-BIR2 (Homo sapiens (Human), UniProt P98170); assay: BIR binding assay (FRET competition), XIAP BIR2
XIAP-BIR2, sequence (P98170 124-240): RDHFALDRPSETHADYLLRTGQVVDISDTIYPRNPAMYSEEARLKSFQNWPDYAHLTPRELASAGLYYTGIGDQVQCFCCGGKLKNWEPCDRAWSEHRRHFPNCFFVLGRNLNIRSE
Outline: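 Competitive TR-FRET used His-tagged XIAP-BIR2 (200 nM) and 200 nM AlexaFluor647-labelled AVPIAQKSE SMAC peptide in HEPES buffer pH 7.4 with CHAPS, glycerol and DTT, incubated 60 min before 30 min with 2 nM Eu-W1024. The 615/665 nm ratio from a 15-point, 3-fold series was fit with a four-parameter model for IC50/pIC50.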

[2] = FRET competition binding, read-out: XIAP BIR2 (pIC50) (converted)
[3] = FRET competition, read-out: XIAP BIR2 (pIC50) (converted)

cIAP2-BIR2, sequence (Q13489 158-242): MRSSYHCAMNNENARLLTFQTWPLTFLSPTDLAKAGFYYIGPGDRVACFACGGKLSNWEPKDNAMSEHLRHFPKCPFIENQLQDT

Row | SMILES | IC50 (cIAP2-BIR2) [µM] | IC50 (cIAP1-BIR3) [µM] | cIAP1 BIR3 vs BIR2 separation window (cIAP1-BIR3) | IC50 (XIAP-BIR3) [µM] | XIAP BIR3 vs BIR2 separation window (XIAP-BIR3) | EC50 [1] [µM] | IC50 (cIAP1-BIR2) [µM] | IC50 (cIAP2-BIR3) [µM] | cIAP2 BIR3 vs BIR2 separation window (cIAP2-BIR3) | IC50 (XIAP-BIR2; [2]) [µM] | IC50 (XIAP-BIR2; [3]) [µM] | IC50 (XIAP-BIR2) [µM]
1 | C[C@@H]1CN(CC(=O)N2CC(C)(C)c3[nH]c(=O)c(Cc4ccc(F)cc4)cc32)[C@@H](CN2CCO[C@H](COc3ccc(C#N)c(OC[C@@H]4CN(C[C@H]5CN[C@H](C)CN5CC(=O)N5CC(C)(C)c6[nH]c(=O)c(Cc7ccc(F)cc7)cc65)CCO4)c3)C2)CN1 [Example 77, 2,4-bis(((S)-4-(((2R,5R)-1-(2-(6-(4-fluorobenzyl)-3,3-dimethyl-5-oxo-2,3,4,5-tetrahydro-1H-pyrrolo[3,2-b]pyridin-1-yl)-2-oxoethyl)-5-methylpiperazin-2-yl)methyl)morpholin-2-yl)methoxy)benzonitrile] | 1 to 3.16 | 0.00138 to 0.00794 | +++ (10,000>FS>1,000) | 0.0158 to 0.0316 | ++++ (FS>10,000) | 0.0126 to 0.0631 | 1 to 3.16 | 0.00138 to 0.00794 | +++ (10,000>FS>1,000) | 10 to 51.3 | – | –
2 | C[C@@H]1CN(CC(=O)N2CC(C)(C)c3[nH]c(=O)c(Cc4ccc(F)cc4)cc32)[C@@H](CN2CCO[C@H](C(=O)NC3CCN(C(=O)[C@@H]4CN(C[C@H]5CN[C@H](C)CN5CC(=O)N5CC(C)(C)c6[nH]c(=O)c(Cc7ccc(F)cc7)cc65)CCO4)CC3)C2)CN1 [Example 129, (S)-4-(((2R,5R)-1-(2-(6-(4-fluorobenzyl)-3,3-dimethyl-5-oxo-2,3,4,5-tetrahydro-1H-pyrrolo[3,2-b]pyridin-1-yl)-2-oxoethyl)-5-methylpiperazin-2-yl)methyl)-N-(1-((S)-4-(((2R,5R)-1-(2-(6-(4-fluorobenzyl)-3,3-dimethyl-5-oxo-2,3,4,5-tetrahydro-1H-pyrrolo[3,2-b]pyridin-1-yl)-2-oxoethyl)-5-methylpiperazin-2-yl)methyl)morpholine-2-carbonyl)piperidin-4-yl)morpholine-2-carboxamide] | 1 to 3.16 | 0.00794 to 0.0158 | ++ (1,000>FS>100) | 0.0158 to 0.0316 | ++++ (FS>10,000) | 0.00049 to 0.0126 | 0.0224 to 1 | 0.00794 to 0.0158 | +++ (10,000>FS>1,000) | 10 to 51.3 | – | –
3 | C[C@@H]1CN(CC(=O)N2CC(C)(C)c3[nH]c(=O)c(Cc4ccc(F)cc4F)cc32)[C@@H](CN2CCO[C@H](COc3cccc(OC[C@@H]4CN(C[C@H]5CN[C@H](C)CN5CC(=O)N5CC(C)(C)c6[nH]c(=O)c(Cc7ccc(F)cc7F)cc65)CCO4)c3)C2)CN1 [Compound 190] | 3.16 to 10 | 0.0158 to 0.0316 | +++ (10,000>FS>1,000) | 0.0158 to 0.0316 | ++++ (FS>10,000) | 0.00049 to 0.0126 | 3.16 to 10 | 0.0158 to 0.0316 | +++ (10,000>FS>1,000) | – | 10 to 51.3 | –
4 | C[C@@H]1CN(CC(=O)N2CC(C)(C)c3[nH]c(=O)c(Cc4ccc(F)cc4)cc32)[C@@H](CN2CCN(C(=O)Cc3ccccc3CC(=O)N3CCN(C[C@H]4CN[C@H](C)CN4CC(=O)N4CC(C)(C)c5[nH]c(=O)c(Cc6ccc(F)cc6)cc54)[C@H](C)C3)C[C@H]2C)CN1 [Example 7, 1,1′-(2,2′-((3R,3′R,6R,6′R)-(((2R,2′R)-(2,2′-(1,2-phenylene)bis(acetyl))bis(2-methylpiperazine-4,1-diyl))bis(methylene))bis(3-methylpiperazine-6,1-diyl))bis(acetyl))bis(6-(4-fluorobenzyl)-3,3-dimethyl-1,2,3,4-tetrahydro-5H-pyrrolo[3,2-b]pyridin-5-one)] | 0.0224 to 1 | 0.0158 to 0.0316 | – | 0.0158 to 0.0316 | – | 0.0631 to 0.316 | 0.0224 to 1 | 0.0158 to 0.0316 | – | 1 to 3.16 | – | –
5 | Cc1ccc(Cc2cc3c([nH]c2=O)C(C)(C)CN3C(=O)CN2C[C@@H](C)NC[C@@H]2CN2CCO[C@H](C(=O)NCc3ccc(CNC(=O)[C@@H]4CN(C[C@H]5CN[C@H](C)CN5CC(=O)N5CC(C)(C)c6[nH]c(=O)c(Cc7ccc(C)cc7)cc65)CCO4)cc3)C2)cc1 [Compound 163, (2S,2′S)-N,N′-(1,4-phenylenebis(methylene))bis(4-(((2R,5R)-1-(2-(3,3-dimethyl-6-(4-methylbenzyl)-5-oxo-2,3,4,5-tetrahydro-1H-pyrrolo[3,2-b]pyridin-1-yl)-2-oxoethyl)-5-methylpiperazin-2-yl)methyl)morpholine-2-carboxamide)] | 0.0224 to 1 | 0.00138 to 0.00794 | ++ (1,000>FS>100) | 0.00794 to 0.0158 | ++++ (FS>10,000) | 0.0126 to 0.0631 | 0.0224 to 1 | 0.00138 to 0.00794 | +++ (10,000>FS>1,000) | – | 10 to 51.3 | –
6 | C[C@@H]1CN(CC(=O)N2CC(C)(C)c3[nH]c(=O)c(Cc4cc(F)c(F)cc4F)cc32)[C@@H](CN2CCO[C@H](C(=O)NCc3ccc(CNC(=O)[C@@H]4CN(C[C@H]5CN[C@H](C)CN5CC(=O)N5CC(C)(C)c6[nH]c(=O)c(Cc7cc(F)c(F)cc7F)cc65)CCO4)cc3)C2)CN1 [Compound 175, (2S,2′S)-N,N′-(1,4-phenylenebis(methylene)) bis(4-(((2R,5R)-1-(2-(3,3-dimethyl-5-oxo-6-(2,4,5-trifluorobenzyl)-2,3,4,5-tetrahydro-1H-pyrrolo[3,2-b]pyridin-1-yl)-2-oxoethyl)-5-methylpiperazin-2-yl)methyl)morpholine-2-carboxamide)] | 3.16 to 10 | 0.0158 to 0.0316 | +++ (10,000>FS>1,000) | 0.0158 to 0.0316 | ++++ (FS>10,000) | 0.00049 to 0.0126 | 1 to 3.16 | 0.00794 to 0.0158 | +++ (10,000>FS>1,000) | – | 10 to 51.3 | –
7 | C[C@@H]1CN(CC(=O)N2CC(C)(C)c3[nH]c(=O)c(Cc4ccc(F)cc4)cc32)[C@@H](CN2CCC(CC(=O)NCc3ccc(CNC(=O)CC4CCN(C[C@H]5CN[C@H](C)CN5CC(=O)N5CC(C)(C)c6[nH]c(=O)c(Cc7ccc(F)cc7)cc65)CC4)cc3)CC2)CN1 [Example 105, N,N′-(1,4-phenylenebis(methylene))bis(2-(1-(((2R,5R)-1-(2-(6-(4-fluorobenzyl)-3,3-dimethyl-5-oxo-2,3,4,5-tetrahydro-1H-pyrrolo[3,2-b]pyridin-1-yl)-2-oxoethyl)-5-methylpiperazin-2-yl)methyl)piperidin-4-yl)acetamide)] | 3.16 to 10 | 0.00794 to 0.0158 | +++ (10,000>FS>1,000) | 0.00794 to 0.0158 | ++++ (FS>10,000) | 0.0631 to 0.316 | 3.16 to 10 | 0.00794 to 0.0158 | +++ (10,000>FS>1,000) | 10 to 51.3 | – | –
8 | C[C@@H]1CN(CC(=O)N2CC(C)(C)c3[nH]c(=O)c(Cc4c(F)cc(F)cc4F)cc32)[C@@H](CN2CCO[C@H](C(=O)NCc3ccc(CNC(=O)[C@@H]4CN(C[C@H]5CN[C@H](C)CN5CC(=O)N5CC(C)(C)c6[nH]c(=O)c(Cc7c(F)cc(F)cc7F)cc65)CCO4)cc3)C2)CN1 [Compound 167, (2S,2′S)-N,N′-(1,4-phenylenebis(methylene)) bis(4-(((2R,5R)-1-(2-(3,3-dimethyl-5-oxo-6-(2,4,6-trifluorobenzyl)-2,3,4,5-tetrahydro-1H-pyrrolo[3,2-b]pyridin-1-yl)-2-oxoethyl)-5-methylpiperazin-2-yl)methyl)morpholine-2-carboxamide)] | 0.0224 to 1 | 0.00794 to 0.0158 | ++ (1,000>FS>100) | 0.0158 to 0.0316 | ++++ (FS>10,000) | 0.00049 to 0.0126 | 0.0224 to 1 | 0.00138 to 0.00794 | ++ (1,000>FS>100) | – | 10 to 51.3 | –
9 | C[C@@H]1CN(CC(=O)N2CC(C)(C)c3[nH]c(=O)c(Cc4ccc(F)cc4)cc32)[C@@H](CN2CCO[C@H](C(=O)N3CCN(C(=O)[C@@H]4CN(C[C@H]5CN[C@H](C)CN5CC(=O)N5CC(C)(C)c6[nH]c(=O)c(Cc7ccc(F)cc7)cc65)CCO4)CC3)C2)CN1 [Example 118, 1,1′-(2,2′-((3R,3′R,6R,6′R)-(((2S,2'S)-(piperazine-1,4-dicarbonyl)bis(morpholine-2,4-diyl))bis(methylene))bis(3-methylpiperazine-6,1-diyl))bis(acetyl))bis(6-(4-fluorobenzyl)-3,3-dimethyl-1,2,3,4-tetrahydro-5H-pyrrolo[3,2-b]pyridin-5-one)] | 1 to 3.16 | 0.00794 to 0.0158 | +++ (10,000>FS>1,000) | 0.00794 to 0.0158 | ++++ (FS>10,000) | 0.0126 to 0.0631 | 1 to 3.16 | 0.00794 to 0.0158 | +++ (10,000>FS>1,000) | – | – | 10 to 51.3
